Literature values as cited in US20190231770A1, “COMBINATION COMPOSITIONS COMPRISING FXR AGONISTS FOR TREATING OR PREVENTING A FIBROTIC, CIRRHOTIC DISEASE OR DISORDER” (Novartis AG, priority 2016, published 2019).

Tests used:
[1] = tested on: caspases 1, 2, 3, 6, 7, 8 and 9
[2] = patients with chronic liver diseases
[3] = pre-clinical models of NASH and cold ischemia and reperfusion injury; clinical trials in NASH/NAFLD, portal hypertension and cirrhosis
[4] = long term administration

LDL cholesterol [4] | pruritus [4] | SMILES | inhibition of caspases 1, 2, 3, 6, 7, 8 and 9 [1] | serum aspartate aminotransferase (AST) and alanine aminotransferase (ALT) levels [2] | efficacy [3]
– | – | C[C@H](NC(=O)C(=O)Nc1ccccc1C(C)(C)C)C(=O)N[C@@H](CC(=O)O)C(=O)COc1c(F)c(F)cc(F)c1F [emricasan, 3-[2-[(2-tert-butyl-phenylaminooxalyl)-amino]-propionylamino]-4-oxo-5-(2,3,5,6-tetrafluoro-phenoxy)-pentanoic acid] | inhibits | lower | demonstrated efficacy
increased LDL cholesterol | associated with pruritus | CC[C@H]1[C@@H](O)[C@@H]2[C@H](CC[C@]3(C)[C@@H]([C@H](C)CCC(=O)O)CC[C@@H]23)[C@@]2(C)CC[C@@H](O)C[C@@H]12 [obeticholic acid, Obeticholic acid] | – | – | –
